From US8778302B2, “Procaspase 8-mediated disease targeting” (The University of British Columbia, priority 2007, dated 2014)
Converted amounts (≈) assume the structure as drawn. Values belong to the molecule of their own block, whether it stands above or below them.

Legend:
MIP/SP cells [1] = assay: Cell viability (MTS) assay after Caspase 8 siRNA, MIP/SP; type: cell-based, human; conditions: Caspase 8 gene silencing, after 5-FU treatment (0-1200 μM) (FIG. 3A)
MIP/ZEO cells [2] = assay: Cell viability (MTS) assay after Caspase 8 siRNA, MIP/ZEO; type: cell-based, human; conditions: Caspase 8 knock-down
Experimental: (§1) Cell Lines: MIP101 and HCT116 (ATCC) human CRC cells were maintained in DMEM media supplemented with 1% penicillin-streptomycin, 1% kanamycin (Invitrogen) and 10% newborn calf serum at 37° C. and 5% CO2. […] MIP101 transfected with empty vector (VIIP/ZEO) and MIP101 cells stably transfected with SPARC (MIP/SP), were also supplemented with 0.01% zeocin (Invitrogen).
(§2) Cell viability was assessed by MTS assay (Promega) at 490 nm. Caspase 3/7 Assay: Cells were transiently transfected with 40 nM of Caspase 8 siRNA for 48 hours, and incubated with 1000 μM 5-FU for another 48 hours. Total cell lysates were isolated and 20 μg of total protein/sample were used in Caspase-Glo 3/7 Assay (Promega), using a 1:1 dilution of Caspase-Glo 3/7 Substrate. Relative luminescence units (RLU) was quantified using a Viktor2 1420 Multilabel counter (Perkin Elmer).

HCT116 cells = assay: Cell viability (MTS) assay after Caspase 8 siRNA, HCT116; type: cell-based, human; conditions: HCT116, Caspase 8 siRNA+5-FU
Experimental: as §1, §2

MIP/5FU cells [3] = assay: Cell viability (MTS) assay after Caspase 8 siRNA, MIP/5FU; type: cell-based, human; conditions: with Caspase 8 knock-down (FIG. 3B)
Experimental: as §1, §2

MIP/SP cells [4] = assay: caspase 8/9 inhibition, cell viability by MTS, MIP/SP; type: cell-based, human
Experimental: (§3) caspase 8/9 Inhibition: Cells were seeded (96-well plates), and incubated 24 hours later (˜60% confluence) with 10-50 μM of Caspase 8-like inhibitor (z-IETD-fmk, Sigma) or Caspase 9-like inhibitor (z-LEHDfink•TFA, Sigma) for 30 minutes, followed by incubation with 1000 μM 5-FU for an additional 24 hours. Cell viability was assessed by MTS assay.

MIP/ZEO cells [5] = assay: caspase 8/9 inhibition, cell viability by MTS, MIP/ZEO; type: cell-based, human
Experimental: as §3

[6] = tested on: Caspase 3/7 activity in MIP/SP cells; assay: Caspase 3/7 assay (Caspase-Glo), MIP/SP; type: cell-based, human
Experimental: as §2, with “Caspase 3/7 Assay: Cells were transiently transfected with 40 nM of Caspase 8 siRNA for 48 hours, and incubated with 1000 μM 5-FU for another 48 hours.” left out

[7] = tested on: Caspase 3/7 activity in MIP/ZEO cells; assay: Caspase 3/7 assay (Caspase-Glo), MIP/ZEO; type: cell-based, human
Experimental: as §2, with “Caspase 3/7 Assay: Cells were transiently transfected with 40 nM of Caspase 8 siRNA for 48 hours, and incubated with 1000 μM 5-FU for another 48 hours.” left out

[8] = tested on: Caspase 3 activation in MIP/5FU cells; assay: Caspase 3/7 assay (Caspase-Glo), MIP/5FU; type: cell-based, human; conditions: Caspase 8 siRNA or scramble control (FIG. 4A)
Experimental: as §2

MIP/SP cells [9] = assay: TUNEL assay, MIP/SP; type: cell-based, human
Experimental: (§4) TUNEL Assay: Cells were seeded (24-well plates) to achieve ˜60% confluence 24 hours later for transient transfection with Caspase 8 siRNA. 36 hours later, cells were incubated with 1000 μM 5-FU for 36 hours, harvested (suspension and attached cells) and fixed onto glass slides with Shandon cytospin at 2000 rpm for 10 minutes and stained as per manufacturer's instructions (Promega). The number of TUNEL-positive cells was counted and averaged from four different fields (n=4 independent experiments, with slides read independently by two individuals in a blinded fashion).

MIP/ZEO cells [10] = assay: TUNEL assay, MIP/ZEO; type: cell-based, human; conditions: 5-FU
Experimental: as §4

MIP/5FU cells [11] = assay: TUNEL assay, MIP/5FU; type: cell-based, human; conditions: 5-FU treatment (FIG. 4B, C)
Experimental: as §4

[12] = tested on: Caspase 8 in MIP/SP tumors; assay: Caspase 8 protein activity in MIP/SP tumor xenografts; type: in vivo, nude mice; conditions: MIP/SP tumors from animals treated with 5-FU (FIG. 6C)
Experimental: In addition, tumor xenografts of MIP/ZEO and MIP/SP cells from nude mice treated with either 5-FU (three consecutive days) or saline, were collected after the 1st cycle of treatment and homogenized (Kinematica, POLYTRON-Aggregate). Lysates were then prepared for immunoblot or RT-PCR. […] Similarly, cells seeded on coverslips at 150,000 cells/well in a E-well plate, treated 24 hours later with 1000 μM 5-FU for 2 hours were then fixed in 2% paraformaldehyde and processed for immunofluorescence staining as previously described [27]. In both cases, α-caspase 8 (1:50, paraffin-embedded tissues; 1:100, cells on coverslips) antibody was used and incubated overnight at 4° C., and counterstained with DAPI. Zeiss Axioplan 2 Fluorescence microscope was used for image capture.

[13] = in vitro cytotoxicity of ABX and Taxol; type: cell-based; conditions: Homo sapiens, A-431; A431 line
Procaspase 8 = target: T1, Procaspase 8 (Homo sapiens, UniProt Q14790); assay: immunoprecipitation of Procaspase 8 with truncated SPARC polypeptides; type: binding; conditions: truncated SPARC polypeptide near amino terminus (MIP/NT), FIG. 8
T1 construct: endogenous in cells; host or cells: MIP101-derived cells expressing SPARC fragments (MIP/NT, MIP/FS, MIP/EC)
T1 sequence (Q14790 whole entry, the tested form may be a part): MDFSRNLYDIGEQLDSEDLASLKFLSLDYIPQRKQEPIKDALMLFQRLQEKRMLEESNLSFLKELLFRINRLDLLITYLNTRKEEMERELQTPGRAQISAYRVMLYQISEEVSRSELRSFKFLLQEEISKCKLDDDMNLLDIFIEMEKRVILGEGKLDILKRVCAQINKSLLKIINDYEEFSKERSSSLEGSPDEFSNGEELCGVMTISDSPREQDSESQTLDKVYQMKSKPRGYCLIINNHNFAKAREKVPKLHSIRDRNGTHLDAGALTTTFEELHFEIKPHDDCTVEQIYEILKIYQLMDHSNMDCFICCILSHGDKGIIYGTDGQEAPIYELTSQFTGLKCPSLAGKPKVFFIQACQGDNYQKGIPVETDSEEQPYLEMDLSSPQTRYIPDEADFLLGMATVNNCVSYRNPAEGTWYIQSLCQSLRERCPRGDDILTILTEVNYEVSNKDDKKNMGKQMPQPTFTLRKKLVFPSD
Experimental: Immunopreciptation was performed with anti-histidine tag antibody (IP: His) (See FIG. 8A) or an anti-Caspase 8 antibody (IP: Capsaase 8) (See FIG. 8B) in the presence of Procaspase 8 and truncated SPARC polypeptides comprising a sequence near the SPARC amino terminus (SEQ ID NO: 20) (MIP/NT), a sequence from the SPARC follistatin-like domain (SEQ ID NO: 22) (MIP/FS), a sequence from the SPARC extracellular domain (SEQ ID NO: 24) (MIP/EC) or a control antibody (IgG).

[14] = tested on: Caspase 8 expression in MIP 101 tumor xenografts; assay: Caspase 8 expression in MIP 101 mouse tumor xenografts; type: in vivo, NIH nude mice; conditions: mice administered SPARC as single agent (FIG. 6D)
Experimental: Animal Studies: Tumors harvested from xenografts from animals (NIH nude mice, 6 weeks old, Taconic Laboratories) were used for histology, RT-PCR or immunoblot. 2×10^6 MIP101 cells were injected into the left flank.
Experimental groups (2 animals/group) for this study included treatment with: SPARC, SPARC+5-FU, 5-FU only, and saline. In addition, tumor xenografts of MIP/ZEO and MIP/SP cells from nude mice treated with either 5-FU (three consecutive days) or saline, were collected after the 1st cycle of treatment and homogenized (Kinematica, POLYTRON-Aggregate). Lysates were then prepared for immunoblot or RT-PCR. All animals received care according to standard animal care protocol and guidelines. […] Similarly, cells seeded on coverslips at 150,000 cells/well in a E-well plate, treated 24 hours later with 1000 μM 5-FU for 2 hours were then fixed in 2% paraformaldehyde and processed for immunofluorescence staining as previously described. In both cases, α-caspase 8 (1:50, paraffin-embedded tissues; 1:100, cells on coverslips) antibody was used and incubated overnight at 4° C., and counterstained with DAPI. Zeiss Axioplan 2 Fluorescence microscope was used for image capture.

[15] = target: T2, interaction between Bcl-2 and Procaspase 8 (Homo sapiens, UniProt Q14790); assay: co-immunoprecipitation of Bcl-2 and Procaspase 8 with exogenous SPARC; type: binding; conditions: addition of exogenous SPARC, 10 μg/ml for 72-hrs; resistant cell lines (FIG. 9C)
T2 construct: lysates were separated into nuclear, cytosolic, and membrane fractions; endogenous in cells; host or cells: MIP/5FU (MIP101 resistant to 5-FU) and MiaPaca/CPT cells
T2 sequence (Q14790 whole entry): as the sequence (Q14790 whole entry, the tested form may be a part) above
Experimental: Cells were grown until ˜80% confluence, and lysates were separated into nuclear, cytosolic, and membrane fractions. 250 μg of individual cellular fractions were incubated with antibodies against HIS (1:100, Sigma), capsase 8 (N-terminus) (1:100, Abcam), Bcl-2 (1:100, Cell Signaling Technologies) or a non-specific anti-mouse IgG antibody as control (Cell Signaling Technologies), in PBS overnight (4° C.). Protein:Antibody mixture was then incubated with […] of Protein A:Protein G (Sigma) (1:1) beads for 4 hours (4° C.). For all complexes, beads were washed with PBS, and eluted with 2×SDS-loading buffer, and used for immunoblotting against caspase 8, HIS, or Bcl-2.
In order to determine the region of interaction between Bcl-2 and Procaspase 8, cells were also incubated with antibodies against caspase 8 targeting its C-terminus (Cell Signaling) or N-terminus (Abeam) in vitro for 24 hours at 1.5-3.0 μg prior to collecting and fractionating the cell lysates for immunoprecipitation. In addition, to assess if exogenous SPARC interferes with the interaction of procaspase 8 and Bcl-2, cells were incubated with 10 μg/ml of SPARC for 72-hrs, in the presence or absence of antibodies against SPARC (3 μg, Hematologic Technologies) for 24 hrs, prior to collection for cellular fractionation and immunoprecipitation.

[16] = Homo sapiens, 1000 μM 5-FU for 24 hours only, read-out: decrease in cell viability

Molecule: O=c1[nH]cc(F)c(=O)[nH]1 [5-FU, 5-fluorouracil]
cell viability (viable cells) (MIP/SP cells [1]): 97.6±1.4%
cell viability (MIP/ZEO cells [2]; following 5-FU treatment (FIG. 3B)): 75.5±0.5%
viability at 1200 µM (MIP/ZEO cells [2]; Homo sapiens, 5-FU 1200 μM (FIG. 3A)): 52.1 ± 1.7%
viable cells (HCT116 cells): 88.2±2.3%
effect of 5-FU on cell viability (MIP/5FU cells [3]): remained unaffected
cytotoxicity at 1000 µM (MIP/SP cells [4]; [16]): 16.8 ± 4.5%
decrease in cell viability (MIP/ZEO cells [5]; 5-FU-treated after pre-incubation with Caspase 8-like inhibitor): 14.0±4.6%
cytotoxicity at 1000 µM (MIP/ZEO cells [5]; [16]): 21 ± 5.9%
Caspase 3/7 activity ([6]; MIP/SP cells, 12 hours after incubation with 5-FU): 16397.0±2787.6 RLU
Caspase 3/7 activity ([6]; MIP/SP transfected with Caspase 8 siRNA, 5-FU treated): 291.0±34.7 RLU
Caspase 3/7 activity ([6]; control MIP/SP cells, 5-FU treated): 5501.0±800.0 RLU
Caspase 3/7 activity ([7]; MIP/ZEO cells, 12 hours after incubation with 5-FU): 9954.0±1104.8 RLU
Caspase 3/7 activity ([7]; MIP/ZEO, 5-FU, scramble control): 1915.0±661.3 RLU
Caspase 3/7 activity ([7]; MIP/ZEO, 5-FU, transfected with Caspase 8 siRNA): 2321.3±661.3 RLU
Caspase 3 activation [8]: No Caspase 3 activation was observed
apoptotic cells (TUNEL) (MIP/SP cells [9]; MIP/SP exposed to 5-FU, no Caspase 8 inhibition): 20.7±6.9%
apoptotic cells (TUNEL) (MIP/SP cells [9]; MIP/SP, 5-FU following Caspase 8 gene knock-down): 0.5±0.5%
apoptotic cells (TUNEL) (MIP/ZEO cells [10]; no transfection with Caspase 8 siRNA): 12.2±0.7%
apoptotic cells (TUNEL) (MIP/ZEO cells [10]; transfection with Caspase 8 siRNA): 12.5±2.4%
apoptosis response (TUNEL) (MIP/5FU cells [11]): did not respond to 5-FU treatment significantly
Caspase 8 protein activity in tumors [12]: highest

Molecule: CC(=O)O[C@H]1C(=O)[C@@]2(C)[C@H]([C@H](OC(=O)c3ccccc3)[C@]3(O)C[C@H](OC(=O)[C@H](O)[C@@H](NC(=O)c4ccccc4)c4ccccc4)C(C)=C1C3(C)C)[C@]1(OC(C)=O)CO[C@@H]1C[C@@H]2O [TAX, Taxol]
IC50 [13]: 0.012 µg/mL (≈ 0.0141 µM)

Molecule: SEQ ID NO: 20: truncated SPARC polypeptide comprising a sequence near the SPARC amino terminus (APQQEALPDETEVVEETVAEVTEVSVGANPVQVEVGEFDDGAEETEEEVVA; SPARC Polypeptide Expressed in MIP/NT cells)
interaction with Procaspase 8 (co-immunoprecipitation) (Procaspase 8): involves a SPARC domain which is within the amino acid sequence of SEQ ID NO: 20

Molecule: z-IETD-fmk
effect of Caspase 8-like inhibitor on 5-FU-induced decrease in cell viability (MIP/SP cells [4]; pre-incubation with inhibitor (as low as 10 μM), then 1000 μM 5-FU): prevented a significant decrease in cell viability
effect of Caspase 8-like inhibitor on 5-FU-induced decrease in cell viability (MIP/ZEO cells [5]; inhibitor 50 μM, then 5-FU): no such effect could be demonstrated

Molecule: z-LEHD-fmk•TFA
effect of Caspase 9-like inhibitor on 5-FU-induced decrease in cell viability (MIP/SP cells [4]; inhibitor then 5-FU): preventing a significant decrease in cell viability
effect of Caspase 9-like inhibitor on 5-FU-induced decrease in cell viability (MIP/ZEO cells [5]; inhibitor then 5-FU): preventing a significant decrease in cell viability

blocking of interaction between Bcl-2 and Procaspase 8 [15]: can be blocked
B1: SPARC: Secreted Protein, Acidic, Rich in Cysteines, a 281 amino acid glycoprotein (protein)
chain: APQQEALPDETEVVEETVAEVTEVSVGANPVQVEVGEFDDGAEETEEEVVAENPCQNHHCKHGKVCELDENNTPMCVCQDPTSCPAPIGEFEKVCSNDNKTFDSSCHFFATKCTLEGTKKGHKLHLDYIGPCKYIPPCLDSELTEFPLRMRDWLKNVLVTLYERDEDNNLLTEKQKLRVKKIHENEKRLEAGDHPVELLARDFEKNYNMYIFPVHWQFGQLDQHPIDGYLSHTELAPLRAPLIPMEHCTTRFFETCDLDNDKYIALDEWAGCFGIKQKDIDKDLVI
modifications: left off: small tags and cut ends
notes: Secreted Protein, Acidic, Rich in Cysteines, a 281 amino acid glycoprotein
Caspase 8 expression in tumor xenografts [14]: higher levels of Caspase 8
